Experimental data published in ChEMBL document CHEMBL1201862, “PubChem BioAssay data set” (2004).
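The compound was tested at five concentrations on cells cultured in 96-well plates, with a 48-hour exposure period. GI50 = concentration required for 50% inhibition of growth.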 Calls of active or inactive are those of the source. Cut-off read from the data, not from the text of the source: active = GI50 up to about 1.1 µM and inactive = higher.

Key:
Assay in all cases: NCI-60 cell line screen, 48 h
[1] = system: SF-268
[2] = system: SN12C
[3] = system: OVCAR-4
[4] = system: TK-10
[5] = system: NCI-H226
[6] = system: NCI-H460
[7] = system: SK-MEL-5
[8] = system: UO-31
[9] = system: 786-0
[10] = system: SF-539
[11] = system: SW-620
[12] = system: SK-MEL-28
[13] = system: Malme-3M
[14] = system: M14
[15] = system: DLD-1
[16] = system: A549
[17] = system: MOLT-4
[18] = system: HOP-92
[19] = system: Hs-578T
[20] = system: MDA-MB-435

Measured: GI50

O=C(c1ccccc1)[C@@H]1C[C@H](Sc2ccccc2)c2cc(Cl)ccc2N1
inactive: [1] 19 µM | [2] 15.7 µM | [3] 37.5 µM | [4] 25.2 µM | [5] 25.6 µM | [6] 26.5 µM | [7] 11.7 µM | [8] 12.7 µM | [9] 18.2 µM | [10] 16.9 µM | [11] 22.5 µM | [12] 17.9 µM | [13] 32.4 µM | [14] 28.2 µM | [15] 23.4 µM | [16] 28.5 µM | [17] 7.08 µM

CCOC(=O)Nc1ccc(S(=O)(=O)I)cc1.CCOC(=O)Nc1ccc(S(=O)(=O)I)cc1.CNC(=O)N=O.NC(=O)OCCCl
inactive: [1] > 100 µM | [2] > 100 µM | [4] > 100 µM | [18] 40.5 µM | [6] > 100 µM | [7] > 100 µM | [8] > 100 µM | [9] > 100 µM | [10] > 100 µM | [11] 61.8 µM | [12] 67 µM | [13] 49.8 µM | [14] > 100 µM | [15] > 100 µM | [16] > 100 µM | [17] > 100 µM

C=CCNC(=O)ON1C(=O)CCC1=O
inactive: [1] > 100 µM | [2] > 100 µM | [3] > 100 µM | [4] > 100 µM | [18] > 100 µM | [6] > 100 µM | [8] > 100 µM | [9] > 100 µM | [10] > 100 µM | [11] > 100 µM | [12] > 100 µM | [13] > 100 µM | [14] > 100 µM | [15] > 100 µM | [16] > 100 µM | [17] > 100 µM

C=C(CCCO)[C@@H]1CC[C@@](C)(O)[C@H]1C
inactive: [2] > 100 µM | [3] > 100 µM | [4] > 100 µM | [5] > 100 µM | [6] > 100 µM | [7] > 100 µM | [8] > 100 µM | [9] > 100 µM | [10] > 100 µM | [11] > 100 µM | [12] > 100 µM | [13] > 100 µM | [15] > 10 µM | [16] > 100 µM | [17] > 100 µM

O=C1O/C(=C(/c2ccc(Cl)cc2)c2nc3ccccc3[nH]2)C(O)=C1c1ccc(Cl)cc1
inactive: [1] 2.46 µM | [2] 2.72 µM | [3] 2.4 µM | [4] 2.96 µM | [5] 2.1 µM | [18] 1.32 µM | [6] 2.73 µM | [8] 2.9 µM | [9] 3.36 µM | [10] 2.65 µM | [11] 3.48 µM | [12] 3.85 µM | [13] 2 µM | [14] 4.06 µM | [15] 3.05 µM | [16] 2.4 µM | [17] 1.95 µM

O=C(/C=C/c1ccccc1F)C(c1ccccc1)c1ccccc1
inactive: [1] 3.11 µM | [2] 4 µM | [4] 4.72 µM | [5] 11.4 µM | [18] 2 µM | [8] 12.3 µM | [9] 2.42 µM | [10] 2.2 µM | [11] 3.83 µM | [12] 2.72 µM | [13] 10.8 µM | [14] 2.62 µM | [15] 3.24 µM | [16] 3.76 µM | [17] 1.24 µM

O=C(Cc1nc2ccccc2o1)C(=O)Nc1ccc(Cl)cc1Cl
inactive: [1] > 100 µM | [2] > 100 µM | [3] > 100 µM | [5] > 100 µM | [18] > 100 µM | [6] > 100 µM | [8] > 100 µM | [9] > 100 µM | [10] > 100 µM | [11] > 100 µM | [12] > 100 µM | [13] > 100 µM | [14] > 100 µM | [15] > 100 µM | [16] > 100 µM

O=C1CCCCC1CN1CCCC1 (configuration not stated)
inactive: [1] > 100 µM | [2] > 100 µM | [3] > 100 µM | [4] > 100 µM | [5] > 100 µM | [6] > 100 µM | [7] > 100 µM | [9] > 100 µM | [11] > 100 µM | [12] > 100 µM | [13] > 10 µM | [14] > 100 µM | [15] > 100 µM | [16] > 100 µM | [17] > 100 µM

CN(C)c1ccc(N=O)c(O)c1.CN(C)c1ccc(N=O)c(O)c1.[SiH4]
inactive: [1] 6.98 µM | [2] 12 µM | [3] 12.7 µM | [4] 14.1 µM | [5] 16.4 µM | [18] 3.82 µM | [7] 11.1 µM | [8] 16.3 µM | [9] 20.8 µM | [10] 14.2 µM | [11] 10.2 µM | [12] 13.2 µM | [13] 14.1 µM | [14] 11.7 µM | [15] 8.28 µM | [16] 12.4 µM | [17] 11.5 µM

COc1cc(-c2c(C#N)c(N)c(C#N)c3c2COc2ccccc2-3)cc(OC)c1OC
inactive: [1] 11.5 µM | [2] 25.9 µM | [19] 16.4 µM | [3] > 22.8 µM | [4] 17.6 µM | [5] 6.92 µM | [18] 16.9 µM | [6] > 77.3 µM | [7] > 86.3 µM | [8] > 35.8 µM | [9] 7.93 µM | [10] 5.35 µM | [11] > 100 µM | [12] > 100 µM | [13] 20.3 µM | [14] > 100 µM | [16] > 100 µM | [17] > 76.9 µM | [20] > 100 µM

COC(=O)C1=C(SC)SC2(C(=O)OC)C3C=C(C)C4C(N13)C42C(=O)OC (configuration not stated)
inactive: [1] > 100 µM | [2] > 100 µM | [4] > 100 µM | [5] > 100 µM | [6] > 100 µM | [7] 83.6 µM | [8] > 100 µM | [9] > 100 µM | [10] > 100 µM | [11] > 100 µM | [12] > 100 µM | [13] > 100 µM | [14] > 100 µM | [15] > 100 µM | [16] > 100 µM | [17] > 100 µM

COc1cc(/C=C2\C(=O)N(C(=O)Cc3ccccc3)N=C2C)cc(OC)c1OC
inactive: [1] > 100 µM | [2] > 100 µM | [3] > 100 µM | [4] > 100 µM | [5] > 100 µM | [6] > 100 µM | [7] > 100 µM | [8] > 100 µM | [9] > 100 µM | [10] > 100 µM | [11] > 100 µM | [12] > 100 µM | [13] > 100 µM | [14] > 100 µM | [15] > 100 µM | [16] > 100 µM | [17] > 100 µM

COC1=CC(O)(CC(N)=O)c2ccccc2C1=O (configuration not stated)
inactive: [1] > 100 µM | [2] > 100 µM | [3] > 100 µM | [4] > 100 µM | [5] > 100 µM | [18] > 100 µM | [6] > 100 µM | [7] > 100 µM | [8] > 100 µM | [9] > 100 µM | [11] > 100 µM | [12] > 100 µM | [13] > 100 µM | [14] > 100 µM | [15] > 100 µM | [16] > 100 µM | [17] > 100 µM

Cc1ccc(Sc2cc([N+](=O)[O-])cc(Sc3ccc(C)cc3)c2Sc2ccc(C)cc2)cc1
inactive: [1] > 100 µM | [2] > 100 µM | [4] > 100 µM | [5] > 100 µM | [6] > 100 µM | [7] > 100 µM | [8] > 100 µM | [9] 51.6 µM | [10] > 100 µM | [11] > 100 µM | [13] > 100 µM | [14] > 100 µM | [15] > 100 µM | [16] > 100 µM | [17] 34.1 µM

C/C(CC(=O)NCCc1ccccc1)=N\NS(=O)(=O)c1ccc(C)cc1
inactive: [1] > 100 µM | [4] > 100 µM | [5] > 100 µM | [18] > 100 µM | [6] > 100 µM | [7] > 100 µM | [8] > 100 µM | [9] > 100 µM | [10] > 100 µM | [11] > 100 µM | [12] > 100 µM | [13] > 100 µM | [14] > 100 µM | [15] > 100 µM | [16] > 100 µM | [17] > 100 µM

CC(C)(C)c1ccc2c(c1)C(=O)c1ccccc1C2=O
inactive: [1] 39.4 µM | [2] 85.3 µM | [19] 90.2 µM | [3] 33.6 µM | [4] 86.3 µM | [5] 35.5 µM | [18] 15.5 µM | [6] 31.3 µM | [7] 18.1 µM | [8] > 100 µM | [9] > 100 µM | [10] > 100 µM | [11] > 100 µM | [12] 98.2 µM | [13] > 100 µM | [14] > 100 µM | [16] 38.6 µM | [17] 24.6 µM | [20] 35.9 µM
